# US10139420B2, “Methods for treating vaso-occlusive crisis using non-modified annexin V” (ISNERM (Institut National de la Sante et de la Recherche …, priority 2011, dated 2018)
# How the values were obtained:
# SCD patients = settings: long term treatment; cited from earlier work
# [1] = tested on: wild type mouse erythrocytes; test: Echinocyte conversion and MP shedding by isolated erythrocytes (LORCA ektacytometer, microscopy, FACS), wild type; format: cell-based; settings: under shear, TSP1 (25 μg/ml), within minutes
# Procedure: (§1) Mouse blood was obtained through retro-orbital sinus puncture, mixed with anti-coagulant heparin buffer (5 UI/ml), and collected on citrated tubes. Blood diluted 1:1 with PBS (Gibco-Life Sciences) was placed onto histopaque-1083 (Sigma) density gradients for centrifugation (600 g, 25 minutes). Erythrocyte pellets were resuspended, washed in DMEM and stored for up to 4 hours at room temperature. Erythrocyte surface CD47 expression was assessed by FACS. Fresh RBC were washed and blocked with PBS-BSA 5% for 30 min and immunoreacted with mouse-specific fluoroisothiocyanate (FITC)-coupled anti-CD47 monoclonal antibody (clone mIAP301; BD Biosciences, Le Pont de Claix, France), or matched irrelevant IgG2aκ isotype for 45 min in 2% PBS-BSA. Erythrocytes were washed in PBS-BSA 2% prior to FACS analysis. Erythrocyte phenotypes were analyzed by […] electronic microscopy. Briefly, mouse erythrocytes were fixed with glutaraldehyde 1% and paraformaldehyde 4%, dehydrated and embedded in Epon™ epoxy resin. Sections contrasted with uranyl acetate and lead citrate were examined with a JEOL JEM 1010 microscope. Average apparent spicule number was determined by direct counting in 80 to 120 cells per condition.
# (§2) To trigger MP shedding, erythrocyte were suspended in polyvinylpyrrolidone (31 mPa.s) and placed in a rotating type LORCA ektacytometer (R&R Mechatronics, Hoorn, The
# (§3) Netherlands) in the absence or presence of TSP1 (25 μg/ml), or TSP1-derived peptides 4N1-1 or 4N1-2 (25 μM). Shear rate was applied according to the builder's program (1500 s^−1; 2.5 minutes). Erythrocytes were immediately separated and supernatant PS^+ MP quantified by FACS. Concentrated MP stocks were generated from 10 to 20 ml of supernatant from erythrocytes suspended in RPMI-1640 (4.10^6/ml) and treated with 4N1-1. Suspensions were centrifuged at 400 g for 15 min to discard cells, and ultracentrifuged at 20500 g for 45 min to pellet MP, which were resuspended in filtered (0.2 μm) DMEM and stored at −80° C. MP concentrations were determined as previously described (20). Briefly, MP were labeled with 2 μl FITC-conjugated annexin-V (Roche Diagnostics, France) diluted in 100 μl reaction buffer with 5 mM CaCl2. CaCl2 was omitted in negative controls. MP were analyzed on a Coulter EPICS XL flow cytometer (Beckman Coulter). MP were identified in forward light scatter (FSc) and side-angle light scatter (SSc) intensity dot plots set at logarithmic gain, as events of 0.1-1 μm in diameter. MP-size events were analyzed in FL/FSC fluorescence dot plots to determine annexin-V labeling. MP concentration was determined with respect to calibrated fluorescent microbeads (Flowcount). To determine erythrocyte origin, MP were double labeled with rat PE-Cy7-coupled mouse-specific anti-Ter119 antibody (Biolegend via Ozyme, France), or matched irrelevant IgG2bκ isotype.
# SAD mice = test: Circulating PS+ MP in platelet-free plasma by FACS (annexin-V labeling), SAD mice; format: in vivo, mouse; settings: SAD mice, TSP1 injection (1 mg/kg), within 5 minutes, vs control SAD
# Procedure: (§4) We characterized the induction of VOC in SAD transgenic mice (18, 19) according to our previously published method, in response to the intravenous administration of TSP1 (1 mg/kg), TSP1-derived peptides 4N1-1 or 4N1-2, or purified erythrocyte MP. Briefly, mice were anesthetized with isoflurane and monitored to prevent any cardiorespiratory depression. Mice were shaved and placed in the decubitus position on a heating blanket (38° C.). We used a Vivid 7 echograph (GE Medical Systems®, Horten, Norway) equipped with a 12-MHz linear transducer (12 L). […] A pulsed Doppler spectrum was recorded and peak systolic, end-diastolic and time-average mean BFV were measured in the renal artery, with Doppler beam angle correction. To calculate cardiac output, spatial flow profiles were analyzed in parasternal long-axis B-mode images of the pulmonary artery and BFV were measured as above. […] Circulating MP were quantified by FACS.
# (§5) Netherlands) in the absence or presence of TSP1 (25 μg/ml), or TSP1-derived peptides 4N1-1 or 4N1-2 (25 μM). […] Erythrocytes were immediately separated and supernatant PS^+ MP quantified by FACS. […] MP concentrations were determined as previously described (20). […] MP were analyzed on a Coulter EPICS XL flow cytometer (Beckman Coulter). […] MP-size events were analyzed in FL/FSC fluorescence dot plots to determine annexin-V labeling. […]
# wild type mice [2] = test: Circulating PS+ MP in platelet-free plasma by FACS (annexin-V labeling), wild type mice; format: in vivo, mouse; settings: TSP1 injection (1 mg/kg), within 5 minutes, vs control
# Procedure: as §4, §5
# SAD transgenic mice = test: Vaso-occlusive crises in mice: renal artery blood flow velocity by Echo-Doppler, cardiac output, renal histology; format: in vivo, mouse; settings: for reduction in the mean blood flow velocity of the right renal arteries: TSP1 1 mg/kg intravenous
# Procedure: We characterized the induction of VOC in SAD transgenic mice (18, 19) according to our previously published method, in response to the intravenous administration of TSP1 (1 mg/kg), TSP1-derived peptides 4N1-1 or 4N1-2, or purified erythrocyte MP. Briefly, mice were anesthetized with isoflurane and monitored to prevent any cardiorespiratory depression. Mice were shaved and placed in the decubitus position on a heating blanket (38° C.). We used a Vivid 7 echograph (GE Medical Systems®, Horten, Norway) equipped with a 12-MHz linear transducer (12 L). The ultrasound probe was placed on the left side of the abdomen for examination of renal arteries, or in left lateral decubitus for cardiac output acquisition with transducer on the chest. Data were transferred on-line to an EchoPAC ultrasound image analysis workstation (GE Medical Systems®). Two-Dimensional ultrasound imaging of the abdomen in left-sided longitudinal B-mode allowed kidney width and height measurements. Color-coded blood flow detection by Doppler enabled renal arteries to be localized. A pulsed Doppler spectrum was recorded and peak systolic, end-diastolic and time-average mean BFV were measured in the renal artery, with Doppler beam angle correction. To calculate cardiac output, spatial flow profiles were analyzed in parasternal long-axis B-mode images of the pulmonary artery and BFV were measured as above. The following formula was applied: CO=[(V^mean·60)·(π·(Dpa/2^2)], where CO is the cardiac output in ml/minute, V^mean is the mean time-averaged BFV in cm/s and Dpa is the pulmonary artery diameter in cm. Kidney sizes and BFV were determined by the same investigator, as means of 5 to 8 measurements. Repeatability for cardiac output measurements was verified. We controlled and confirmed that kidney size was similar between SAD and wild type mice. After sacrifice, kidneys were dissected, dehydrated, mounted in paraffin, sectioned and stained by Masson trichrome. Vascular congestion was observed by phase-contrast microscopy, as large erythrocyte aggregates occluding kidney capillaries and larger vessels. In some experiments, TSP1 (1 mg/kg) or control BSA (1 mg/kg) were injected. After 5 minutes, mice were terminally anesthetized by pentobarbital overdose. Whole blood was collected through cardiac puncture, centrifuged (400 g, 15 minutes) to eliminate erythrocytes and leukocytes, and double centrifuged (12500 g, 5 minutes) to eliminate platelets with minimal activation. Supernatants were considered platelet-free plasma (PFP). Circulating MP were quantified by FACS.
# We evaluated the concept that TSP1 influences VOC during SCD in vivo. We used SAD transgenic mice that express a mutated human hemoglobin β-chain known to cause sickle cell formation and sensitivity to VOC (18, 19).
# wild type mice [3] = test: Vaso-occlusive crises in mice: renal artery blood flow velocity by Echo-Doppler (wild type); format: in vivo, mouse
# Procedure: as §4, with “L). The ultrasound probe was placed on the left side of the abdomen for examination of renal arteries, or in left lateral decubitus for cardiac output acquisition with transducer on the chest. Data were transferred on-line to an EchoPAC ultrasound image analysis workstation (GE Medical Systems®). Two-Dimensional ultrasound imaging of the abdomen in left-sided longitudinal B-mode allowed kidney width and height measurements.” for “L).”
# SAD mouse erythrocytes = test: Echinocyte conversion and MP shedding by isolated erythrocytes (LORCA ektacytometer, microscopy, FACS), SAD; format: cell-based
# Procedure: as §1, §2, §3
# [4] = after intravenous injection (TSP1 1 mg/kg; MP 300.10^3 MP/mouse)
# [5] = TSP1 and shear stress, vs control (discussion)
Compound,long term safety (SCD patients),proportion of SCD patients in whom treatment is effective (SCD patients),proportion of wild type echinocytes reached [1],raise in the proportion of wild type echinocytes [1],increase in circulating PS+ MP (SAD mice),raise in plasma PS+ MP (wild type mice [2]),reduction in the mean blood flow velocity of the right renal arteries (SAD transgenic mice; after 5 minutes),reduction in the mean blood flow velocity of the right renal arteries (SAD transgenic mice; rapid),"drop in renal perfusion (SAD transgenic mice; TSP1 injection, within minutes)",diastolic and mean blood flow velocities (SAD transgenic mice; [4]),renal histology after Masson trichrome stain (SAD transgenic mice; [4]),systolic blood flow velocity (SAD transgenic mice; [4]),"systolic, diastolic and mean blood flow velocities (wild type mice [3]; TSP1 1 mg/kg intravenous)",renal perfusion (wild type mice [3]; TSP1 injection),"effect on sickle cells (SAD mouse erythrocytes; SAD erythrocytes, TSP1 or peptide)",MP shedding by SAD erythrocytes (SAD mouse erythrocytes; [5]),proportion of SAD echinocytes (SAD mouse erythrocytes; [5]),"increase in SAD echinocytes (SAD mouse erythrocytes; under shear, TSP1 (25 μg/ml) or peptide (25 μM), vs control)"
NC(=O)NO [hydroxy-urea],presumptions of carcinogenesis in the long term,about 40%,,,,,,,,,,,,,,,,
TSP1: Human recombinant TSP1 produced by EMP-Genetech (Germany),,,30%,over 10 fold,3 fold,3 fold,35%,20%,30%,dramatically decreased,red blood cells aggregates and vascular congestion,unchanged,remained unchanged,did not modify renal perfusion,did not affect sickle cells,doubled,doubled,50%
